Experiments:
[1] = system: aortic rings; assay: Vasodilation of phenylephrine-contracted rat thoracic aortic rings (organ chamber, isometric tension); design: species or system Sprague-Dawley(SD) rats; conditions: for effect to the blood vessel without endothelium / relaxation to the blood vessel with endothelium: aortic rings contracted by 10^-6M phenylephrine; for effect to the blood vessel without endothelium: endothelium removed mechanically; for relaxation to the blood vessel with endothelium: substance alone; for relaxation to the blood vessel with endothelium / vasodilation in the presence of methylene blue(MB) / vasodilation in the presence of nitro-L-arginine(NLA): with endothelium; for vasodilation in the presence of methylene blue(MB): together with 10^-6M methylene blue(MB), an inhibitor of soluble guanylate cyclase; for vasodilation in the presence of nitro-L-arginine(NLA): together with 10^-6M nitro-L-arginine(NLA), an inhibitor of nitric oxide synthase
Procedure: Sprague-Dawley(SD) rats weighing 300-400g were sacrificed and their thoracic aortae were removed quickly, and then placed in a Krebs-Ringer-sodium bicarbonate solution (control solution, NaCl 118.3; KCl 4.7; MgSO4 1.2; KH2PO4 1.2; CaCl2 2.5; NaHCO3 25.0; CaEDTA 0.016 and glucose 11.1mM). Blood within the aortae, adipose and connective tissues surrounding the blood vessel were removed and then the clean aortae were cut down to prepare the aortic rings having 2-3mm length. The aortic rings were suspended vertically in an organ chamber filled with 25ml of control solution (pH 7.4). In some aortic rings, the endothelium was removed mechanically by rolling the rings 7 to 8 times on a tissue towel with pincette. The bottom of aortic ring was fixed to the organ chamber and the top thereof was connected to a transducer coupler through stirrups for recording of isometric tension.
To the aortic rings showing a stable contraction induced by addition of 10^-6M phenylephrine to the organ chamber was added ginsenoside Rg3 or Rg5-dimethylsulfoxide solution alone or together with 10^-6M methylene blue(MB) or 10^-6M nitro-L-arginine(NLA) in order to observe the vasodilation thereof. The degree of contraction by 10^-6M phenylephrine was set to 100% and the degree of relaxation caused by ginsenoside Rg3 or Rg5 was represented as percent(%) with respect thereto.
Vasodilation of the processed panaxadiol saponin fraction obtained in Example 7 as mentioned above was determined according to the same experimental procedure as Test Example 1.

[2] = system: Human umbilical vein endothelium cells(HUVEC); assay: Cytotoxicity to HUVEC cells (MTT, 48 hours); type: cell-based; conditions: for cytotoxicity: compared with solvent alone (Rg3: dimethylsulfoxide; Rg5: distilled water)
Procedure: Human umbilical vein endothelium cells(HUVEC) cultured in M199 medium were suspended in physiological saline to a concentration of 20000 cells/180µl. The cell suspension was introduced into each well of 96-well plate in an amount of 180µl, and then 20µl of dimethylsulfoxide as a solvent or the same volume of Rg3 dissolved in dimethylsulfoxide was added thereto. The plate was incubated for 48 hours in a cell-incubator of 37°C while keeping 5% CO2. Then, 50µl of MTT(3-(4,5-dimethyl-thiazol-2'-yl)-2,5-diphenyltetrazolium bromide) dissolved in phosphate buffered solution in a concentration of 2mg/ml was added thereto and incubated again for 4 hours under the same condition as mentioned above. Thereafter, the supernatant was removed and 200µl of dimethylsulfoxide was added to measure the absorbance at 540nm. The absorbance measured was converted into cell number to determine IC50 of dimethylsulfoxide solvent and Rg3 which is the concentration to inhibit the cell growth by 50% and can be used as an index of cytotoxicity.
Human umbilical vein endothelium cells(HUVEC) cultured in M199 medium were suspended in physiological saline to a concentration of 20000 cells/180µl. The cell suspension was introduced into each well of 96-well plate in an amount of 180µl, and then 20µl of distilled water as a solvent or the same volume of Rg5 dissolved in distilled water was added thereto. The plate was incubated for 48 hours in a cell-incubator of 37°C while keeping 5% CO2. Then, 50µl of MTT(3-(4,5-dimethyl-thiazol-2'-yl)-2,5-diphenyltetrazolium bromide) dissolved in phosphate buffered solution in a concentration of 2mg/ml was added thereto and incubated again for 4 hours under the same condition as mentioned above. Thereafter, the supernatant was removed and 200µl of dimethylsulfoxide was added to measure the absorbance at 540nm.

## CC(C)=CC/C=C(\C)[C@H]1CC[C@]2(C)[C@@H]1[C@H](O)C[C@@H]1[C@@]3(C)CC[C@H](O[C@@H]4O[C@H](CO)[C@@H](O)[C@H](O)[C@H]4O[C@@H]4O[C@H](CO)[C@@H](O)[C@H](O)[C@H]4O)C(C)(C)[C@@H]3CC[C@]12C [ginsenoside Rg5]
[1]
  effect to the blood vessel without endothelium: no effect
  relaxation to the blood vessel with endothelium: concentration-dependent relaxation
  vasodilation in the presence of methylene blue(MB): significantly inhibited
  vasodilation in the presence of nitro-L-arginine(NLA): significantly inhibited
[2]
  cytotoxicity: no cytotoxicity

## ginsenoside Rg3
[1]
  effect to the blood vessel without endothelium: no effect
  relaxation to the blood vessel with endothelium: concentration-dependent relaxation
  vasodilation in the presence of methylene blue(MB): significantly inhibited
  vasodilation in the presence of nitro-L-arginine(NLA): significantly inhibited
[2]
  cytotoxicity: lower cytotoxicity than the solvent
[2]; dissolved in dimethylsulfoxide
  IC50 (concentration to inhibit the cell growth by 50%): 26.7 µg/mL

Source: patent publication EP0873131B1, “PROCESSES FOR PREPARATION OF RG3 AND RG5 GINSENOSIDES” (Cheil Je Dang Co., priority 1995, dated 1997)
